According to US20110178104A1, “Anti-Heparin Compounds” (POLYMEDIX INC., priority 2010, published 2011):
Values after ≈ are worked out from the molar mass of the structure shown. Values joined by “and” are separate entries in the source; they are usually repeats but may differ in a detail not shown here. Equal entries are not always repeated.

How the values were obtained:
fondaparinux (FONDAPX) = test: FXa chromogenic assay (absence of plasma), fondaparinux; settings: fondaparinux 0.02 μg/mL, absence of plasma
Procedure: (§4) Human antithrombin was mixed with an anticoagulant agent (a LMWH or fondaparinux); final concentrations were 0.22 μg/mL for the LMWHs and 0.07 μg/mL for fondaparinux. […] Absorbance was read every 30 seconds over a 4 minute period in a SpectraMax 250 instrument (Molecular Devices, Inc.). EC50 values are determined by a curve-fit program (SoftMax Pro) using the following formula:
(§5) FXa Chromogenic Assay (absence of plasma). Human antithrombin was mixed with an anticoagulant (a LMWH or fondaparinux); final concentrations were 0.1 μg/mL for the LMWHs and 0.02 μg/mL for fondaparinux. […] Absorbance was read every 30 seconds over a 4 minute period in a SpectraMax 250 instrument (Molecular Devices Inc.™) The slope of absorbance vs time was calculated for each compound concentration. EC50 values were determined using a curve fit program (GraphPad Prism 5).

UFH [1] = test: FXa amidolytic assay in human plasma, UFH; assay type: biochemical; settings: UFH 4 μg/mL
Procedure: (§1) Eight parts of pooled human plasma was supplemented with 1 part LMWH or UFH at final concentrations of 4 μg/mL, or fondarinux at a final concentration of 1.25 μg/mL. One 1 μL sample of test agent was then added to 9 μL of supplemented plasma (test agent concentration ranges=0.156 to 20 μg/mL) and mixed. The supplemented plasmas were analyzed immediately in clotting and amidolytic assays as described below. All samples were performed in duplicate.
FXa Amidolytic Assay: Bovine factor Xa was added to supplemented plasma and incubated for 5 minutes at 37° C. Spectrozyme FXa substrate was added and the optical density change at 405 nm was measured for 30 seconds. % factor Xa inhibition is calculated using the following equation:
(§2) % Inhibition=[(ODbaseline−ODsample)/ODbaseline]×100.

[2] = tested on: unfractionated heparin (UFH); test: aPTT clotting assay, UFH 0.2 U/mL in plasma (Example 7); assay type: biochemical; settings: UFH 0.2 U/mL in plasma
Procedure: aPTT clotting Assay. Unfractionated heparin was mixed with plasma at a final concentration of 0.2 U/mL. […] The ACL Elite Hemostasis analyzer (Beckman Coulter™) was used to add aPTT reagent (HemosIL SynthASil) to supplemented plasma. Clotting was initiated by addition of CaCl2 and time to clot was recorded.

UFH [3] = test: FIIa amidolytic assay in human plasma, UFH; assay type: biochemical; settings: UFH 4 μg/mL
Procedure: as §1
FIIa Amidolytic Assay. Human thrombin was added to supplemented plasma and incubated for 1 minute at 37° C. Spectrozyme TH substrate was added and the optical density change at 405 nm was measured for 30 seconds in a SpectraMax 250 instrument. % factor IIa inhibition was calculated using the following equation:
as §2

enoxaparin [4] = test: FXa amidolytic assay in human plasma, enoxaparin; assay type: biochemical; settings: enoxaparin 10 μg/mL, at a concentration of about 50 μg/mL
enoxaparin (ENOX) = test: FXa chromogenic assay (absence of plasma), enoxaparin; settings: enoxaparin 0.1 μg/mL, absence of plasma
Procedure: as §4, §5

blood pressure = test: Hemodynamic responses in the anesthetized rat; assay type: in vivo
Source text: As a key safety issue for cationic compounds is reduction in blood pressure shortly after administration. To address this hemodynamic issue, a medicinal chemistry strategy with literature precedence of introducing carboxylic acid functionality was applied to the salicylamide series of compounds. […] Surgically prepared animals were purchased from Charles River Laboratories, Raleigh, N.C. Animals were anesthetized on the day of experiment with isoflurane (1.8-4%). Blood pressure and heart rate data were collected on a Grass Polygraph recorder. The test articles, vehicle or protamine dosing preparations were administered once to each rat by a 10 minute intravenous infusion three minutes following a single intravenous injection of heparin (50 U/kg). Each animal received a dose volume of 2.0 mL/kg. Blood pressure was recorded prior to treatment for approximately 1 minute and immediately following heparin, immediately following vehicle, test articles or protamine and at 5, 15, 30, and 60 minutes following dosing. The doses of test agent were either 8 mg/kg or 16 mg/kg. The differences in hemodynamic effect at 16 mg/kg were especially profound (FIG. 5).

enoxaparin [5] = test: FXa amidolytic assay (Example 10), enoxaparin; settings: read-out: Enox FXa EC50; enoxaparin 0.1 ug/ml; human antithrombin, bovine Factor Xa
Procedure: (§6) Two μl of test agent are added (range between 0.01 and 23 ug/ml) and incubated for 5 minutes at 23° C. Bovine Factor Xa was added to a final concentration of 0.636 nkat/mL and incubated for a further 10 minutes at 23° C.

[6] = tested on: isolated human erythrocytes; test: in vitro; assay type: cell-based; settings: for EC50: Homo sapiens, Erythrocyte, 1 h, human RBC, 1 hour at 37° C., read-out: Hemolysis EC50
Summary of the method: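 Pooled human red cells, washed and diluted from a 0.22% stock suspension in TBS pH 7.4, were shaken with two-fold dilutions (1000 to 0.48 µg/ml) for 1 h at 37 °C. Released hemoglobin in the supernatant was read at OD405. EC50 came from a four-parameter logistic fit, with melittin as positive control.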

tinzaparin = test: FXa amidolytic assay (Example 10), tinzaparin; settings: read-out: Tinzap FXa EC50; tinzaparin 0.1 ug/ml; human antithrombin, bovine Factor Xa
Procedure: as §6

fondaparinux [7] = test: FXa amidolytic assay (Example 10), fondaparinux; settings: for EC50: read-out: Fondap FXa EC50, fondaparinux 0.02 μg/mL, human antithrombin, bovine Factor Xa
Procedure: as §6

fondaparinux [8] = test: In vivo neutralization of fondaparinux in the rat; settings: fondaparinux 0.5 mg/kg IV, test agent 2 and 5 mg/kg IV
Procedure: Compounds were selected to test fondaparinux neutralization in vivo. Rats were pre-treated with fondaparinux administered by IV injection at 0.5 mg/kg. The rats were then treated with a single IV injection of saline, protamine or the PMX compound. Blood was collected via the orbital sinus from three rats per group at the following time points: pre-dose, 1, 3, 10, 30 and 60 min. Plasma samples were prepared for analysis of anti-factor Xa activity using an AMEX Destiny Plus Coagulation Analyzer.

NIH/3T3 cells = test: Cytotoxicity colorimetric assay, NIH/3T3; assay type: cell-based, mouse; settings: one hour in serum-free media
Summary of the method: (§3)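 HepG2 cells (3×10^4/well, MEM + 10% FBS) and NIH/3T3 cells (2×10^4/well, DMEM + 10% BCS) were exposed to compound for 1 h in serum-free medium. Viability read by tetrazolium-to-formazan bioreduction after return to serum medium; EC50 from a four-parameter logistic fit.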

[9] = Cytotoxicity colorimetric assay, NIH/3T3; assay type: cell-based, mouse; settings: mouse, NIH/3T3 cells, one hour in serum-free media
Summary of the method: as §3

[10] = Coagulation properties via ROTEM; settings: at fully efficacious doses
enoxaparin [11] = test: Enoxaparin-extended bleeding times, rat tail transection model; assay type: in vivo; settings: rat, enoxaparin 2 mg/kg IV, test agent 5 mg/kg IV
Procedure: Studies have now been done to examine effects on extended bleeding times caused by enoxaparin treatment. Male Sprague Dawley rats (Charles River) were administered 2 mg/kg enoxaparin by IV injection in the tail vein, followed 3 minutes later by test agent (IV, tail vein) at 2 and 5 mg/kg doses. Tails were then rapidly transected and bleeding time onto an absorbant pad was determined. Enoxaparin alone (no antagonist) extends bleeding time from 11 to 24 seconds.

UFH [12] = test: FXa amidolytic assay (Example 10), UFH; settings: read-out: Heparin FXa uM EC50; UFH 0.03 units/mL; human antithrombin, bovine Factor Xa
Procedure: as §6

HepG2 cells = test: Cytotoxicity colorimetric assay, HepG2; assay type: cell-based, human; settings: one hour in serum-free media
Summary of the method: as §3

[13] = Cytotoxicity colorimetric assay, HepG2; assay type: cell-based, human; settings: human, HepG2 cells, one hour in serum-free media
Summary of the method: as §3

enoxaparin [14] = test: In vivo neutralization of enoxaparin in the rat
Procedure: Compounds were tested for their ability to neutralize enoxaparin coagulation inhibition in rats. Male Sprague-Dawley rats were used in this study (Charles River Laboratories). They were ten-weeks-old at the start of the study and their weights ranged from 319-362 g. Enoxaparin (2 mg/kg) was administered by IV injection to groups of six rats. After 3 min, saline, protamine or a test compound was administered by IV injection. Blood was collected before dosing with enoxaparin, and at 1, 3, 10, 30 and 60 min after dosing with the standard and test compounds. All treatments were dosed in a volume of 1 mL/kg. Blood was collected via the orbital sinus from three rats per group. At each time point, 1 mL of blood was collected from each animal into a single tube. The blood was analyzed using an AMEX Destiny Plus Coagulation Analyzer for activated partial thromboplastin time (APTT) and anti-Factor Xa (low-molecular weight).

Unfractionated heparin = test: aPTT clotting assay, UFH 0.4 U/mL in plasma (Example 10); assay type: biochemical; settings: unfractionated heparin 0.4 U/mL in plasma; aPTT clotting
Procedure: aPTT clotting Assay: Unfractionated heparin was mixed with plasma at a final concentration of 0.4 U/mL (or concentration which increases aPTT time to between 120 and 300 seconds). […] The ACL Elite Hemostasis analyzer (Beckman Coulter™) was used to add aPTT reagent (HemosIL SynthASil) to supplemented plasma. Clotting was initiated by addition of CaCl2 and time to clot was recorded.

UFH [15] = test: In vivo neutralization of unfractionated heparin in the rat; settings: UFH 100 U/kg IV, 1 mg/kg dose IV
Procedure: The male Sprague-Dawley rats used in this study were obtained from Charles River Laboratories, Raleigh. They were nine-weeks-old at the start of the study and their weights ranged from 279-334 g. Rats were pre-treated with UFH administered by IV injection in a tail vein at 100 U/kg in a dose volume of 1 mL/kg. The rats were then treated with a single IV injection of saline, protamine or the appropriate test compound at doses of 0.25, 0.5 and 1.0 mg/kg. All treatments were dosed in a volume of 1 mL/kg. Blood was collected via the orbital sinus from three rats per group at the following time points after treatment: predose, 1, 3, 10, 30 and 60. At each time point, 1 mL of blood was collected from each animal into a single tube. The blood was analyzed using an AMEX Destiny Plus Coagulation Analyzer for activated partial thromboplastintime (APTT) and anti-Factor Xa.

[16] = at a concentration of greater than about 25 μg/mL

| SMILES | FONDAPX (FXa) EC50 (fondaparinux (FONDAPX)) | UFH (aPTT) EC50 [2] | percent of the anticoagulant effect of enoxaparin inhibited (FXa amidolytic) (enoxaparin [4]) | ENOX (FXa) EC50 (enoxaparin (ENOX)) | EC50 (enoxaparin [5]) | EC50 [6] | EC50 (tinzaparin) | EC50 (fondaparinux [7]) | EC50 at 1 h [9] | EC50 (UFH [12]) | EC50 at 1 h [13] | EC50 (Unfractionated heparin) | further results |
| --- | --- | --- | --- | --- | --- | --- | --- | --- | --- | --- | --- | --- | --- |
| COc1ccc(NC(=O)[C@H](CCCCN)NC(=O)c2cc(NC(=O)[C@H](CCCCN)NC(=O)c3cc(NC(=O)[C@H](CCCCN)NC(=O)c4cc(NC(=O)[C@@H](N)CCCCN)ccc4OC)ccc3OC)ccc2OC)cc1C(N)=O [Compound 8] | 6.19 mg/L | 2.26 mg/L | about 60% | 0.29 mg/L | – | – | – | – | – | – | – | – | percent of the anticoagulant effect of UFH inhibited (FXa amidolytic) (UFH [1]; [16]): 90%-100%; concentration antagonizing about 50% of the anticoagulant effect of UFH (FXa amidolytic) (UFH [1]; human plasma): 12 to 18 µg/mL; percent of the anticoagulant effect of UFH inhibited (FIIa amidolytic) (UFH [3]; [16]): 98%-100%; concentration antagonizing about 50% of the anticoagulant effect of UFH (FIIa amidolytic) (UFH [3]; human plasma): 14 to 20 µg/mL |
| COc1ccc(NC(=O)[C@@H](CCCNC(=N)N)NC(=O)c2cc(NC(=O)[C@@H](CCCNC(=N)N)NC(=O)c3cc(NC(=O)[C@@H](CCCNC(=N)N)NC(=O)c4cc(NC(=O)[C@@H](C)N)ccc4OC)ccc3OC)ccc2OC)cc1C(N)=O [Compound 16] | 1.22 mg/L | 2.41 mg/L | about 20% | 0.32 mg/L | – | – | – | – | – | – | – | – | – |
| COc1ccc(NC(=O)[C@H](CCCCN)NC(=O)c2cc(NC(=O)[C@H](CCCCN)NC(=O)c3cc(NC(=O)[C@H](CCCCN)NC(=O)c4cc(NC(=O)[C@@H](N)CCCCN)ccc4OC)ccc3OC)ccc2OC)cc1C(=O)N[C@@H](Cc1c[nH]c2ccccc12)C(=O)O [Compound 266] | – | – | – | – | 0.122 µM and 0.162 µM and 0.164 µM | > 1000 mg/L | 0.122 µM and 0.151 µM and 0.121 µM | 0.214 µM and 0.265 µM and 0.368 µM | 838 mg/L (≈ 638 µM) | 0.21 µM and 0.247 µM | 534 mg/L (≈ 407 µM) | 2.44 µM and 1.84 µM and 3.48 µM | hemodynamic response profile (blood pressure; anesthetized rat, 8 or 16 mg/kg 10 minute IV infusion after heparin 50 U/kg): superior to protamine; hemodynamic liabilities (summary) (blood pressure; rat, in vivo): reduced hemodynamic liabilities; hemolysis and cytotoxicity (summary) [6]: non-hemolytic and low cytotoxicity; Potent LMWH-antagonists with superior anti-fondaparinux activity (summary) (fondaparinux [7]): superior anti-fondaparinux activity; reduction of Factor Xa (anti-factor Xa) levels after fondaparinux (fondaparinux [8]): effective at the higher 5 mg/kg dose; Cytotoxicity 3T3 EC50 (NIH/3T3 cells): 848 mg/L; coagulation properties via ROTEM [10]: normal coagulation properties at fully efficacious doses; neutralization of prolonged bleeding times (enoxaparin [11]): incomplete neutralization; Cytotoxicity HepG2 EC50 (HepG2 cells): >1000 mg/L; in vivo efficacy versus LMWH by anti-factor Xa activity (summary) (enoxaparin [14]; compared with protamine): superior to protamine; neutralization of enoxaparin (aPTT and factor Xa assays, words) (enoxaparin [14]; rat, enoxaparin 2 mg/kg IV): completely neutralizes enoxaparin within minutes |
| COc1cc(OC)c(C(=O)N[C@H]2CC[C@H](NC(=O)c3ccc(OCCCCCN)cc3OCCCCCN)CC2)cc1C(=O)N[C@H]1CC[C@H](NC(=O)c2ccc(OCCCCCN)cc2OCCCCCN)CC1 [Compound 335] | – | – | – | – | 0.185 µM and 0.201 µM | > 1000 mg/L | 0.148 µM and 0.12 µM | 1.56 µM and 1.39 µM | 120 mg/L (≈ 116 µM) | 0.151 µM | 700 mg/L (≈ 679 µM) | 1.7 µM and 1.41 µM | neutralization of UFH activity in aPTT assays (UFH [15]): complete neutralization |
